B1: AAA (bacterium CSBL00001) (protein)
chain: MGKSHSPVHWKSAAEIVELVKSKQISPREVVESTIDLIEQRDPGLNAVVYKAYDEAREKAAALERRIMQGEPVGMLAGVPTLMKDLFAAKPGWPSTLGGIRALKDARGAAGVWSTYPLKMSGEDSLLLGQTNSPVYGFRGTTDNTFFGPTRNPFNLDFNAGGSSGGAAALVADGIVPVAGGTDGGGSIRIPAAWTNTYGFQPSIGRVPFKSRPNAFHPGPYLYEGPITRTVRDAALAMNVLHGFDRRDPASLRVKLDFTSALAQGVRGKKIGLTLNYGVFPVQQEIQDLIGKAARVFTELGAHVEFVDLGIPYSQKQMSDAWCRMIAIPTVASMQALRKEGIDLYGEHRADIPDALMKWIDAVADISVQQISADQLLRTTVFDCMNGVFDRFDLLLAPTLACMPVRNATDGCTEGPSQINGEEIDPLIGWCMTYLTNFSGHPSASVPAGLIDGLPAGMLIIGDRQADLDVIAASAAFERASPWSQYYDIPAGRPL
notes: His6-tagged, plasmid pET-aaa (pET-28a(+)), expressed in E. coli BL21(DE3), Ni-NTA purified

Assays:
Assay in all cases: UV-vis spectrophotometric hydrolysis assay, Michaelis-Menten fit
ApaA = system: T1, ApaA; type: biochemical, Rhodococcus sp. NyZ502; conditions: 100 mM phosphate buffer pH 7.4; 30 °C
T1 construct: His6-tagged, plasmid pTIP-apaA (pTIPQC1), expressed in Rhodococcus erythropolis L88, Ni-NTA purified

[1] = substrate: CC(=O)Nc1ccc(O)cc1; type: biochemical, bacterium CSBL00001; conditions: 100 mM phosphate buffer pH 7.4, 30 °C
[2] = substrate: CC(=O)Nc1ccc([N+](=O)[O-])cc1; type: biochemical, bacterium CSBL00001; conditions: 100 mM phosphate buffer pH 7.4, 30 °C

Molecule	Km (ApaA) [µM]	Km [1] [µM]	Km [2] [µM]	kcat [2] [s⁻¹]
CC(=O)Nc1ccc([N+](=O)[O-])cc1 [4-nitroacetanilide]	26.6 ± 4.21			
CC(=O)Nc1ccc(O)cc1 [Acetaminophen]	8.96			
CC(=O)Nc1ccccc1 [acetanilide]	30.2 ± 3.86			
B1		22.13	16.82 ± 5.55	5.65 ± 0.54

— PMC11887370, “The universal accumulation of p-aminophenol during the microbial degradation of analgesic and antipyretic acetaminophen in WWTPs: a novel metagenomic perspective” (Microbiome, 2025)
